{"source": "patent US7098204B2", "about": "(C.N.R.S., priority 1999, dated 2006)", "key": {"casein kinase 1": {"tested_on": "casein kinase 1", "assay": "In vitro phosphorylation of presenilin-2-MBP by casein kinase 1", "format": "biochemical", "conditions": "presenilin-2-MBP substrate, autoradiography", "protocol": "The large hydrophilic loop of presenilin-2 between transmembrane domains 6 and 7 was expressed in E. coli as a presseilin-2 loop—maltose-binding protein (MBP) fusion protein [25]. Following affinity chromatography purification presenilin-2-MBP was used as a substrate for CK1. After 30 min incubation in the presence of various HD concentrations, the kinase reaction was stopped by addition of Laemmli sample buffer. MBP-presenilin-2 was resolved by SDS-PAGE and its phosphorylation level visualised by autoradiography."}, "protein kinase C β2": {"target": "protein kinase C β2 (Homo sapiens, UniProt P05771)", "sequence (P05771 1-673 isoform P05771-2)": "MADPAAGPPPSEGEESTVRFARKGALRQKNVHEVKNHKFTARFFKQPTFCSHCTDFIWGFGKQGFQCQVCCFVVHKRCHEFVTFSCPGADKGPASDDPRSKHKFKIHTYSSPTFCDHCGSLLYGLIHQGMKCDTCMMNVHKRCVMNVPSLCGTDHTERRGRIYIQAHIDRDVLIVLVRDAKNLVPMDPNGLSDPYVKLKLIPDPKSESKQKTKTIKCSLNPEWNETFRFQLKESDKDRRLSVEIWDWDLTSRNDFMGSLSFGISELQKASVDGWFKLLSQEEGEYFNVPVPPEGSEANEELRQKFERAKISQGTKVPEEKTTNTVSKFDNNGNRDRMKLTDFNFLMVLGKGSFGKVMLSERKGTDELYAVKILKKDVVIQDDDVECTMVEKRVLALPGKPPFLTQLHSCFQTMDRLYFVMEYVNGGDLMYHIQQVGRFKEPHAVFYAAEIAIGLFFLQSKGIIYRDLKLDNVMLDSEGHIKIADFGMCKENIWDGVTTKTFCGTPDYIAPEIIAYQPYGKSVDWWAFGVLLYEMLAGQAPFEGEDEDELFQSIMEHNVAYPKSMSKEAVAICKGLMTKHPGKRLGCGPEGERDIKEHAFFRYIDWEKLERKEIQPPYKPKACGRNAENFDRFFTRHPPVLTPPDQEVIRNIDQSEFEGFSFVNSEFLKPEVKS", "assay": "protein kinase C β2 assay", "format": "biochemical", "conditions": "15 μM ATP", "protocol": "(§1) Kinases activities were assayed in Buffer A or C (unless otherwise stated), at 30° C., at a final ATP concentration of 15 μM. Blank values were subtracted and activities calculated as pmoles of phosphate incorporated for a 10 min. incubation (usually expressed in % of the maximal activity, i.e. without inhibitors). Controls were performed with appropriate dilutions of Me2SO. In some cases phosphorylation of the substrate was assessed by autoradiography after SDS-PAGE. IC50 values were estimated from the dose-response curves. • CDK1/cyclin B was extracted in homogenisation buffer from M phase starfish (Marthasterias glacialis) oocytes and purified by affinity chromatography on p9^CKShs1-Sepharose beads, from which it was eluted by free p9^CKShs1 as described. The kinase activity was assayed in buffer C, with 1 mg histone H1/ml, in the presence of 15 μM [γ-^32P] ATP (3,000 Ci/mmol; 1 mCi/ml) in a final volume of 30 μl. After 10 min. incubation at 30° C., 25 μl aliquots of supernatant were spotted onto 2.5×3 cm pieces of Whatman P81 phosphocellulose paper, and, 20 sec. later, the filters were washed five times (for at least 5 min. each time) in a solution of 10 ml phosphoric acid/liter of water. The wet filters were counted in the presence of 1 ml ACS (Amersham) scintillation fluid. • GSK-3β was either purified from rabbit muscle or expressed in and purified from insect Sf9 cells. […]"}, "ovary, OVCAR-3": {"tested_on": "ovary, OVCAR-3", "assay": "Human cancer cell line OVCAR-3 proliferation", "format": "cell-based"}, "topoisomerase II α": {"target": "topoisomerase II α (Homo sapiens, UniProt P11388)", "sequence (P11388 whole entry)": "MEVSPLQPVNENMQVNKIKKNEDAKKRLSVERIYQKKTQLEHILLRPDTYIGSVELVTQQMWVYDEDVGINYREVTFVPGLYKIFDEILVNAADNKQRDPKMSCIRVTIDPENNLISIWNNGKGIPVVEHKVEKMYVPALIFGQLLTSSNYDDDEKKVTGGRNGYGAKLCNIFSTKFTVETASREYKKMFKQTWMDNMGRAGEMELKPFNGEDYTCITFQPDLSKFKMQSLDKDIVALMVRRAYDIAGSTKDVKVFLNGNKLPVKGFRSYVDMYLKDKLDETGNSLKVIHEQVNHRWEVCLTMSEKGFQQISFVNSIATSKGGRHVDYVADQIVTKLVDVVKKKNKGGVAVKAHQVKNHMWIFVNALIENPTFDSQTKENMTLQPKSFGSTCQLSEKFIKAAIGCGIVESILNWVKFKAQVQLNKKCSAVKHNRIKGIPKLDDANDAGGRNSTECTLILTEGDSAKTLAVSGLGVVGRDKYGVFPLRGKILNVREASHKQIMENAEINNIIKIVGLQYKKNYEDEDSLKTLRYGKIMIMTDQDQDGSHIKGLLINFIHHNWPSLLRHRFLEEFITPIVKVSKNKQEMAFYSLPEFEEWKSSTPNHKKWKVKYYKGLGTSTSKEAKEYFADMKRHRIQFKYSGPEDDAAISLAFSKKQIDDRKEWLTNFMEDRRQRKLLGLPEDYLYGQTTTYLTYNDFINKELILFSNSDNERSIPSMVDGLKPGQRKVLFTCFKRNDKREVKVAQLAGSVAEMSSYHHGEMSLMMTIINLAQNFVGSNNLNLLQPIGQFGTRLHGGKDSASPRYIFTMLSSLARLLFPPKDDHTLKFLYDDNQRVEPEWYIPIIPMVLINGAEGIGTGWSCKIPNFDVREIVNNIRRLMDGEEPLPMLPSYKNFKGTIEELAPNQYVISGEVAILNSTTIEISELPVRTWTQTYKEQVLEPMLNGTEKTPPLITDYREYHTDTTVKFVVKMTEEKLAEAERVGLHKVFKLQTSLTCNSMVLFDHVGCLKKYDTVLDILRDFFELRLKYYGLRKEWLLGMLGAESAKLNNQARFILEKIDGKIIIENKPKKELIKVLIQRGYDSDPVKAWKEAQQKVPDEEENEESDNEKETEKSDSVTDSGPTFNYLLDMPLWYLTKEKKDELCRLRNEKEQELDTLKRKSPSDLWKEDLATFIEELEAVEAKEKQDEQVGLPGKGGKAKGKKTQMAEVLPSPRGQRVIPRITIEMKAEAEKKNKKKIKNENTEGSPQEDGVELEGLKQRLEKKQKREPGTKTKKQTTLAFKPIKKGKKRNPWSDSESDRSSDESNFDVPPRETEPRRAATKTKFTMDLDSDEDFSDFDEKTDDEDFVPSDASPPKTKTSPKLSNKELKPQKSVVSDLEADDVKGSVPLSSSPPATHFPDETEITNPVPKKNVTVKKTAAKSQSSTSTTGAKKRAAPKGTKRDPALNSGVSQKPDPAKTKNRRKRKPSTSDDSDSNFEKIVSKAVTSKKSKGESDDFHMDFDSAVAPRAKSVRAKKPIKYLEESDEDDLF", "assay": "topoisomerase II α assay", "format": "biochemical", "conditions": "−(x) = no effect at the highest dose tested (in parentheses)", "protocol": "(§2) Enzyme activities were assayed as described in the Experimental Procedures section, in the presence of increasing HD concentrations. IC50's were calculated from the dose-response curves.−, no effect at the highest dose tested (in parentheses)."}, "CDK5/p35": {"target": "CDK5/p35 (Rattus norvegicus, UniProt Q03114)", "sequence (Q03114 whole entry)": "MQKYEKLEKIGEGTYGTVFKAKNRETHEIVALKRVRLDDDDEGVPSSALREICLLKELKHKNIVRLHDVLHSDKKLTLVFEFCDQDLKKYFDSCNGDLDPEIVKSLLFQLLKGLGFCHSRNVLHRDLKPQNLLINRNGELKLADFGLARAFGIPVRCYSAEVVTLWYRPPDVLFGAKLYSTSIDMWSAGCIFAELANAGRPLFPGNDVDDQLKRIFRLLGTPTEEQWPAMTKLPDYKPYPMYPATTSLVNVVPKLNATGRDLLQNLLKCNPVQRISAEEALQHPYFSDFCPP", "sequence (P61810 2-307 partner limits assumed)": "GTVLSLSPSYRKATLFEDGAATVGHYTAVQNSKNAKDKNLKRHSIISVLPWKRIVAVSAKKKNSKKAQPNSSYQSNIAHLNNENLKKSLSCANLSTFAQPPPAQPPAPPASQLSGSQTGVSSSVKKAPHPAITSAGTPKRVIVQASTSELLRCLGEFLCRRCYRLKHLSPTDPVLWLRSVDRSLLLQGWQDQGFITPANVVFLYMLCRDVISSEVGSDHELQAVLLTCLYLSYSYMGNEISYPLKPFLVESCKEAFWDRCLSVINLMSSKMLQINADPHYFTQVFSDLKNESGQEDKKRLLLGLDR", "assay": "In vitro Pak1 phosphorylation by immunoprecipitated CDK5/p35", "format": "biochemical", "conditions": "CDK5/p35 immunoprecipitated from P02 rat cortices; read-out: IC50 CDK5/p35 towards GST-Pak1K299", "quoted_text": "CDK5/p35 was immunoprecipitaed from P02 rat cortices using the C-terminal Santa Cruz antibody (400 μg total protein per kinase assay). The immunoprecipitate was split into equal aliquots and the kinase assays performed using GST-Pak1 K299 as a substrate. […] Phosphorylation was monitored by autoradiography."}, "cdk2/cyclin A": {"target": "cdk2/cyclin A (Homo sapiens, UniProt P24941)", "assay": "cdk2/cyclin A kinase assay", "format": "biochemical", "conditions": "15 μM ATP", "protocol": "as §1"}, "colon, KM20L2": {"tested_on": "colon, KM20L2", "assay": "Human cancer cell line KM20L2 proliferation", "format": "cell-based", "conditions": "KM-20L2"}, "topoisomerase I": {"target": "topoisomerase I (Homo sapiens, UniProt P11387)", "sequence (P11387 whole entry)": "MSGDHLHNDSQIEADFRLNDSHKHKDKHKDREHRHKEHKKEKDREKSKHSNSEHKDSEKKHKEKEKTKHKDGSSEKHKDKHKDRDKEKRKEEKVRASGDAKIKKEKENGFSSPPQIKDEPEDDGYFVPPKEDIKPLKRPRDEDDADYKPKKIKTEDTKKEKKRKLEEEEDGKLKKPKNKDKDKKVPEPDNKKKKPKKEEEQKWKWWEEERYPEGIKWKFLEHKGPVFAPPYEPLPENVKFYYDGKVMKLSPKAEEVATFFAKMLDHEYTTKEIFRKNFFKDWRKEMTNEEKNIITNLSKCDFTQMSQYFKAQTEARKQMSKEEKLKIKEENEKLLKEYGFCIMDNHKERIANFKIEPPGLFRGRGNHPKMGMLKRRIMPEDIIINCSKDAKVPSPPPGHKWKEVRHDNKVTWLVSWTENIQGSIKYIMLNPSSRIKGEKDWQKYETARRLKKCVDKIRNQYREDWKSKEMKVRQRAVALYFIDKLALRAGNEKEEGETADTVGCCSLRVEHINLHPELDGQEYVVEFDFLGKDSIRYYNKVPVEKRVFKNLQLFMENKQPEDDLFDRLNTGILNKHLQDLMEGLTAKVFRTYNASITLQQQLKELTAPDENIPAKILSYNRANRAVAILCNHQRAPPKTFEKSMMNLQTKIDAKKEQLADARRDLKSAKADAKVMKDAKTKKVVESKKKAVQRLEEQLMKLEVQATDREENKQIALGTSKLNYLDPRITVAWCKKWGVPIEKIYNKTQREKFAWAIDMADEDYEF", "assay": "topoisomerase I assay", "format": "biochemical", "conditions": "−(x) = no effect at the highest dose tested (in parentheses)", "protocol": "as §2"}, "protein kinase C γ": {"target": "protein kinase C γ (Homo sapiens, UniProt P05129)", "assay": "protein kinase C γ assay", "format": "biochemical", "conditions": "15 μM ATP", "protocol": "as §1"}, "HT29-18-C1 cells": {"tested_on": "HT29-18-C1 cells", "assay": "Trypan blue dye exclusion, HT29-18-C1", "format": "cell-based, human", "protocol": "HT29-18-C1 cells were synchronised in G1 by serum deprivation. 5% FCS was added at time 0 and cells were simultaneously treated (o) or not (o) exposed to 10 μM HD. During 24 h and thereafter cultured in 5% FCS-containing medium. Cell number was determined every 12 h for a 72 h period using a hemocytometer. The kinetics of growth inhibition are given on FIG. 9A. […] Serum-treated cells (time 0) were exposed to various HD concentrations and counted after 24 h. The results are given on FIG. 9B. The number of non-serum stimulated cells ( ? ) is indicated for comparison. […] Trypan blue dye exclusion indicated little toxicity associated with 10 and 80 μM HD at 24 h (>95% and 90% viability, respectively). This antiproliferative effect of HD appears to be reversible. In fact, cells slowly began to proliferate again after 72 h culture."}, "CDK1/cyclin B": {"tested_on": "CDK1/cyclin B", "assay": "Cyclin B release from immobilised CDK1/cyclin B, Western blot", "format": "binding, starfish", "conditions": "high HD concentrations, 30 min., beads washed", "protocol": "Proteins bound to p9^CKShs1-Sepharose beads (starfish CDK1/cyclin B) were denatured with 2× Laemmli sample buffer. Samples were run on 10% SDS-polyacrylamide gels. Proteins were transferred from the gel to a 0.1 μm nitrocellulose sheet in a milliblot-SDE system (Millipore) for 30 min. at 2.5 mA/cm^2 in transfer buffer. Subsequently, the filter was blocked with 5% low fat milk in TBST for 1 hour. The filter was then washed with TBST and incubated for 1 hour with the first antibodies (anti-PSTAIRE, 1:2000; anti-cyclin B, 1:1000). After 4 washes (1×20 min., 3×5 min.) with TBST, the nitrocellulose sheet was treated for 1 hour with horseradish peroxidase-coupled secondary antibodies diluted in TBST (1:1000). The filter was then washed 5 times (1×20 min., 4×5 min.) with TBST and analysed by enhanced chemioluminescence with ECL detection reagents and hyperfilm MP.\nTo investigate the mechanism of HD action, kinetic experiments were performed by varying both ATP levels and HD concentrations (FIG. 6A). […] Enzyme activities were assayed as described under the Experimental Procedures section. Results illustrated by FIG. 6A: 1/v vs 1/ATP primary plot. ATP concentrations in the reaction mixture varied from 0.05 to 0.25 mM, concentration of histone H1 was kept constant at 0.7 mg/ml. […] Apparent inhibition constant (Ki) is indicated by an arrow."}, "c-Jun N-terminal kinase": {"target": "c-Jun N-terminal kinase", "assay": "c-Jun N-terminal kinase assay", "format": "biochemical", "conditions": "15 μM ATP", "protocol": "as §1"}}, "data": [{"smiles": "NC1=NC(=O)C(=C2CCNC(=O)c3[nH]c(Br)cc32)N1", "note": "[hymenialdisine, 4-(2-amino-4-oxo-2-imidazolin-5-ylidene)-2-bromo-4,5,6,7-tetrahydropyrrolo (2,3-c) azepine-8-one]", "values": [{"measurement": "presenilin-2 phosphorylation by CK1", "setting": "casein kinase 1", "result": "dose-dependent inhibition of presenilin-2 phosphorylation"}, {"measurement": "IC50", "setting": "protein kinase C β2", "result": 1700, "unit": "nM"}, {"measurement": "IC50", "setting": "ovary, OVCAR-3", "result": 1.8, "unit": "µg/mL"}, {"measurement": "IC50", "setting": "topoisomerase II α", "result": "> 10000", "unit": "nM"}, {"measurement": "IC50", "setting": "CDK5/p35", "result": "10 to 100", "unit": "nM"}, {"measurement": "IC50", "setting": "cdk2/cyclin A", "result": 70, "unit": "nM"}, {"measurement": "IC50", "setting": "colon, KM20L2", "result": 8.5, "unit": "µg/mL"}, {"measurement": "IC50", "setting": "topoisomerase I", "result": "> 10000", "unit": "nM"}, {"measurement": "IC50", "setting": "protein kinase C γ", "result": 500, "unit": "nM"}, {"measurement": "viability (trypan blue)", "setting": "HT29-18-C1 cells; 10 μM HD at 24 h", "result": "> 95", "unit": "%"}, {"measurement": "viability (trypan blue)", "setting": "HT29-18-C1 cells; 80 μM HD at 24 h", "result": 90, "unit": "%"}, {"measurement": "displacement of cyclin B from CDK1", "setting": "CDK1/cyclin B", "result": "does not act by displacing cyclin B from CDK1"}, {"measurement": "IC50", "setting": "c-Jun N-terminal kinase", "result": 8500, "unit": "nM"}]}]}
